Literature values as cited in US12102751B2, “Positive pressure inhaler for delivery of inhalable medication and methods for use” (priority 2019, dated 2024).

Legend:
[1] = after vaping

SMILES | solubility in most organic solvents (most organic solvents, specifically lipids and alcohols) | solubility in water (water) | time after which plasma concentration falls [1] [min] | time at which plasma concentration reaches maximum strength [1] [min]
CCCCCc1cc(O)c2c(c1)OC(C)(C)[C@@H]1CCC(C)=C[C@@H]21 [THC, tetrahydrocannabinol] | good | very low | 22 | 6
C=C(C)[C@@H]1CCC(C)=C[C@H]1c1c(O)cc(CCCCC)cc1O [CBD, Cannabidiol] |  |  | 22 | 6
